Experimental data from the supplement of paper PMC10307832.

Tests used:
Test in all cases: relative viability (nuclei count vs DMSO), 5 days (fraction); higher = more cells survive
Bosutinib + Phenformin = compound: COc1cc(Nc2c(C#N)cnc3cc(OCCCN4CCN(C)CC4)c(OC)cc23)c(Cl)cc1Cl [Bosutinib] + N=C(N)NC(=N)NCCc1ccccc1 [Phenformin] (partner 250 µM)
How it was run: (§1)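 The day after seeding in 1536-well plates, lung cancer cell lines were treated by pin tool with a single drug, or with a fixed anchor-drug dose together with five library-drug doses (not always all listed) in √10 steps. After 5 days, a combined fix-and-stain solution (final 0.05% Triton X-100, 1% formaldehyde, 1 ug/ml Hoechst) was added. Nuclei counted on 4× images gave relative viability as treated counts over vehicle counts, reported as the median of duplicate plates.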

Bosutinib + Crizotinib = compound: COc1cc(Nc2c(C#N)cnc3cc(OCCCN4CCN(C)CC4)c(OC)cc23)c(Cl)cc1Cl [Bosutinib] + C[C@@H](Oc1cc(-c2cnn(C3CCNCC3)c2)cnc1N)c1c(Cl)ccc(F)c1Cl [Crizotinib] (partner 1 µM)
How it was run: as §1

Bosutinib + Luminespib = compound: COc1cc(Nc2c(C#N)cnc3cc(OCCCN4CCN(C)CC4)c(OC)cc23)c(Cl)cc1Cl [Bosutinib] + CCNC(=O)c1noc(-c2cc(C(C)C)c(O)cc2O)c1-c1ccc(CN2CCOCC2)cc1 [Luminespib] (partner 0.01 µM)
How it was run: as §1

Bosutinib + Pictilisib = compound: COc1cc(Nc2c(C#N)cnc3cc(OCCCN4CCN(C)CC4)c(OC)cc23)c(Cl)cc1Cl [Bosutinib] + CS(=O)(=O)N1CCN(Cc2cc3nc(-c4cccc5[nH]ncc45)nc(N4CCOCC4)c3s2)CC1 [Pictilisib] (partner 1 µM)
How it was run: as §1

Bosutinib + Linsitinib = compound: COc1cc(Nc2c(C#N)cnc3cc(OCCCN4CCN(C)CC4)c(OC)cc23)c(Cl)cc1Cl [Bosutinib] + C[C@]1(O)C[C@@H](c2nc(-c3ccc4ccc(-c5ccccc5)nc4c3)c3c(N)nccn32)C1 [Linsitinib] (partner 1 µM)
How it was run: as §1

Row | Cell Line | relative viability (Bosutinib + Phenformin; first compound 0.01 µM) | relative viability (Bosutinib + Phenformin; first compound 0.03162 µM) | relative viability (Bosutinib + Phenformin; first compound 0.1 µM) | relative viability (Bosutinib + Phenformin; first compound 1 µM) | relative viability (Bosutinib + Crizotinib; first compound 0.01 µM) | relative viability (Bosutinib + Crizotinib; first compound 0.03162 µM) | relative viability (Bosutinib + Crizotinib; first compound 0.1 µM) | relative viability (Bosutinib + Crizotinib; first compound 1 µM) | relative viability (Bosutinib + Luminespib; first compound 0.01 µM) | relative viability (Bosutinib + Luminespib; first compound 0.03162 µM) | relative viability (Bosutinib + Luminespib; first compound 0.1 µM) | relative viability (Bosutinib + Luminespib; first compound 1 µM) | relative viability (Bosutinib + Pictilisib; first compound 0.01 µM) | relative viability (Bosutinib + Pictilisib; first compound 0.03162 µM) | relative viability (Bosutinib + Pictilisib; first compound 0.1 µM) | relative viability (Bosutinib + Pictilisib; first compound 1 µM) | relative viability (Bosutinib + Linsitinib; first compound 0.01 µM) | relative viability (Bosutinib + Linsitinib; first compound 0.03162 µM) | relative viability (Bosutinib + Linsitinib; first compound 0.1 µM) | relative viability (Bosutinib + Linsitinib; first compound 1 µM)
1 | NCI-H2009 | 0.53 | 0.49 | 0.423 | 0.346 | 1.05 | 1.07 | 1.03 | 0.66 | 1.01 | 1.08 | 1.06 | 0.671 | 0.997 | 0.866 | 0.927 | 0.557 | 1.18 | 1.22 | 1.2 | 0.886
2 | HCC-78 | 0.665 | 0.703 | 0.802 | 0.7 | 0.358 | 0.319 | 0.284 | 0.314 | – | – | – | – | 0.2 | 0.196 | 0.269 | 0.301 | 0.575 | 0.492 | 0.52 | 0.407
3 | NCI-H2170 | 0.391 | 0.418 | 0.427 | 0.328 | 1.25 | 1.14 | 1.15 | 1.06 | 0.515 | 0.665 | 0.702 | 0.44 | 0.348 | 0.359 | 0.301 | 0.271 | – | – | – | –
4 | NCI-H1793 | 0.431 | 0.387 | 0.364 | 0.242 | – | – | – | – | 0.213 | 0.205 | 0.163 | 0.179 | 0.394 | 0.321 | 0.383 | 0.292 | 0.875 | 0.742 | 0.904 | 0.551
5 | HCC-366 | 0.63 | 0.61 | 0.555 | 0.53 | 0.59 | 0.6 | 0.516 | 0.316 | – | – | – | – | 0.154 | 0.144 | 0.181 | 0.121 | 0.708 | 0.604 | 0.457 | 0.0753
6 | NCI-H1651 | 0.32 | 0.322 | 0.331 | 0.357 | 0.783 | 0.89 | 0.888 | 0.773 | 0.738 | 0.942 | 0.812 | 0.902 | 0.579 | 0.62 | 0.62 | 0.687 | 0.911 | 1.02 | 0.939 | 0.724
7 | LC-2-ad | 0.659 | 0.549 | 0.577 | 0.694 | 0.449 | 0.473 | 0.445 | 0.539 | 1.05 | 0.924 | 0.978 | 1.01 | 0.571 | 0.45 | 0.459 | 0.419 | 0.902 | 0.879 | 0.871 | 0.78
8 | HCC-827 | 0.427 | 0.407 | 0.366 | 0.19 | 0.874 | 0.943 | 0.91 | 0.605 | 0.709 | 0.589 | 0.525 | 0.174 | 0.971 | 0.763 | 1.12 | 0.749 | 0.987 | 0.967 | 0.914 | 0.843
9 | SK-LU-1 | 0.538 | 0.473 | 0.507 | 0.303 | 0.9 | 0.819 | 0.807 | 0.48 | 0.199 | 0.189 | 0.212 | 0.187 | 0.574 | 0.685 | 0.517 | 0.545 | 1.06 | 1.18 | 1.11 | 0.631
10 | ABC-1 | 0.186 | 0.196 | 0.224 | 0.26 | 1.01 | 1.04 | 1.21 | 0.708 | 0.665 | 0.536 | 0.713 | 0.481 | 0.836 | 0.85 | 0.841 | 0.596 | 0.858 | 0.931 | 0.647 | 0.359
11 | NCI-H1703 | – | – | – | – | 0.769 | 0.667 | 0.493 | 0.319 | – | – | – | – | 0.246 | 0.235 | 0.242 | 0.228 | 0.804 | 0.932 | 0.587 | 0.388
12 | COR-L 105 | 0.55 | 0.522 | 0.519 | 0.357 | 0.938 | 0.798 | 0.617 | 0.507 | 0.882 | 0.635 | 0.669 | 0.471 | 0.423 | 0.442 | 0.387 | 0.393 | 0.948 | 1.21 | 0.857 | 0.59
13 | LOU-NH91 | 0.717 | 0.699 | 0.636 | 0.497 | 0.737 | 0.723 | 0.707 | 0.49 | 0.315 | 0.36 | 0.38 | 0.178 | 0.492 | 0.524 | 0.504 | 0.468 | 0.939 | 0.921 | 0.834 | 0.521
14 | NCI-H661 | 0.281 | 0.3 | 0.287 | 0.269 | – | 1.06 | 0.989 | 0.633 | 0.947 | 0.964 | 0.963 | 0.758 | 0.351 | 0.53 | 0.386 | 0.327 | 0.678 | 0.571 | 0.57 | 0.323
15 | NCI-H1650 | 0.434 | 0.344 | 0.339 | 0.318 | 0.921 | 0.989 | 0.908 | 0.496 | 0.193 | 0.209 | 0.174 | 0.154 | 0.587 | 0.516 | 0.524 | 0.49 | – | – | – | –
16 | NCI-H2342 | 0.565 | 0.68 | 0.56 | 0.643 | – | – | – | – | 0.587 | 0.714 | 0.694 | 0.666 | – | – | – | – | – | – | – | –
17 | SW 900 | 0.577 | – | 0.686 | 0.458 | – | – | – | – | 0.154 | – | 0.183 | 0.15 | – | – | – | – | – | – | – | –
18 | NCI-H522 | 0.657 | 0.623 | 0.63 | 0.613 | – | – | – | – | 1.15 | 1.16 | 1.26 | 1.01 | – | – | – | – | – | – | – | –
19 | IA-LM | – | – | – | – | 0.733 | 0.777 | 0.839 | 0.688 | – | – | – | – | – | 0.365 | 0.317 | 0.359 | 0.637 | 0.744 | 0.754 | 0.745
